Experimental findings from patent publication US20260193249A1, “PREPARATION OF PYRAZOLOPYRIDINE AND TRIAZOLOPYRIDINE DERIVATIVES AS NOVEL DIACYLGLYCERIDE O-ACYLTRANSFERASE 2 INHIBITORS” (Merck Sharp & Dohme LLC, priority 2022, published 2026) are described below.

The experiment deals with T1, human DGAT2 (Homo sapiens, UniProt Q96PD7).
T1 construct: made in house; host or cells: Sf-9 insect cells (baculovirus), membrane fraction
T1 sequence (Q96PD7 1-388): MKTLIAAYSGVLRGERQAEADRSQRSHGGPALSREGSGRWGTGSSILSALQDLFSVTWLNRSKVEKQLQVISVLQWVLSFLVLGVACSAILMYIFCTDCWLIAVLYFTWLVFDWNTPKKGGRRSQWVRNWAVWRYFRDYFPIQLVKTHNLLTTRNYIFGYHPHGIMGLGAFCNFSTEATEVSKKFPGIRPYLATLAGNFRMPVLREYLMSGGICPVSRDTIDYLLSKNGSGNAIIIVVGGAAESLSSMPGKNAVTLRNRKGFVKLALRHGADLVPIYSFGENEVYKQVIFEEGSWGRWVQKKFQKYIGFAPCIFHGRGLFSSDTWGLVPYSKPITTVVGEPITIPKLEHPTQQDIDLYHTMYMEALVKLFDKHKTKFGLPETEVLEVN
Nature of the experiment: DGAT2 Enzymatic Activity Assay. The format is biochemical. To be noted: membrane prep of Sf-9 insect cells expressing hDGAT2; 13C18-triolein product by LC/MS/MS; 25 μM diolein, 5 μM 13C oleoyl-CoA. How it is done: Sf-9 insect cells were maintained in Grace's insect cell culture medium with 10% heated-inactivated fetal bovine serum, 1% Pluronic F-68 and 0.14 μg/ml Kanamycine sulfate at 27° C. in a shaker incubator. After infection with untagged baculovirus expressing human DGAT2 (hDGAT2) at multiplicity of infection (MOI) 3 for 48 hours, cells were harvested. Cell pellets were suspended in buffer containing 10 mM Tris-HCl pH 7.5, 1 mM EDTA, 250 mM sucrose and Complete Protease Inhibitor Cocktail (Sigma Aldrich), and sonicated on ice. Cell debris were removed by centrifugation at 2000×g for 15 minutes. Membrane fractions were isolated by ultracentrifugation (100,000×g), resuspended in the same buffer, and frozen (−80° C.) for later use. The protein concentration was determined with the Pierce™ BCA Protein Assay Kit (Thermo Fisher Scientific).
LC/MS/MS analyses were performed using Thermal Fisher's LX4-TSQ Vantage system. This system consists of an Agilent binary high-performance liquid chromatography (HPLC) pump and a TSQ Vantage triple quadrupole MS/MS instrument. For each sample, 2 μL samples from the top organic layer of in-plate liquid-liquid extraction were injected onto a Thermo Betabasic C4 column (2.1 mm×20 mm, 5 μm particle size). The samples were then eluted using the following conditions; mobile phase: Isopropanol:acetonitrile/10 mM ammonium formate=50/35/15 (v/v/v), flow rate: 0.8 mL/min, temperature: 25° C. Data was acquired in positive mode using a heated electrospray ionization (HESI) interface. […] The peak area was integrated by Xcalibur Quan software. The ratio between the ^13C18triolein generated in the reaction and spiked in internal standard ^13C21-triolein was used to generate percentage inhibition and IC50 values. Compound percentage inhibition was calculated by the following formula: Inhibition %=1−[(compound response−low control)/(high control−low control)]×100%.
DGAT2 activity was determined by measuring the amount of enzymatic product ^13C18-triolein (^13C-1,2,3-Tri(cis-9-octadecenoyl)glycerol) using the membrane prep mentioned above. The assay was carried out in ABgene 384-well assay plates in a final volume of 25 μL at rt.
In general, IC50 refers to the concentration at which inhibition is half-maximal. A higher IC50 goes with lower potency. On to `Cc1cn2nc(C(=O)NC3(C)CCS(=O)(=O)CC3)cc2cc1Oc1ncc(F)cc1OCC(F)(F)F` [Example 60, 5-((5-Fluoro-3-(2,2,2-trifluoroethoxy)pyridin-2-yl)oxy)-6-methyl-N-(4-methyl-1,1-dioxidotetrahydro-2H-thiopyran-4-yl)pyrazolo[1,5-a]pyridine-2-carboxamide], for which 0.0035 µM corresponded to half-maximal inhibition (IC50).

In turn, `CC(O)c1c(C(=O)NC2(C)CCS(=O)(=O)CC2)nn2ccc(Oc3ncccc3OCC(F)(F)F)cc12` (single isomer, unassigned) [Example 52b, 3-(1-Hydroxyethyl)-N-(4-methyl-1,1-dioxidotetrahydro-2H-thiopyran-4-yl)-5-((3-(2,2,2-trifluoroethoxy)pyridin-2-yl)oxy)pyrazolo[1,5-a]pyridine-2-carboxamide] yielded an IC50 of 0.333 µM. Against the preceding molecule, the IC50 is about 95-fold higher.

In turn, `C[C@@]1(NC(=O)c2nn3ccc(Oc4ncccc4OCC(F)(F)F)cc3c2F)CCS(=O)(=O)C1` [Example 23, (R)-3-Fluoro-N-(3-methyl-1,1-dioxidotetrahydrothiophen-3-yl)-5-((3-(2,2,2-trifluoroethoxy)pyridin-2-yl)oxy)pyrazolo[1,5-a]pyridine-2-carboxamide] registered an IC50 of 0.817 µM.

`Cc1cc(Oc2ncc(F)cc2OCC(F)(F)F)cc2cc(C(=O)NC3(C)CCS(=O)(=O)CC3)nn12` [Example 59, 5-((5-Fluoro-3-(2,2,2-trifluoroethoxy)pyridin-2-yl)oxy)-7-methyl-N-(4-methyl-1,1-dioxidotetrahydro-2H-thiopyran-4-yl)pyrazolo[1,5-a]pyridine-2-carboxamide] displayed an IC50 of 0.006 µM.

Consider `CC1(NC(=O)c2nn3ccc(Oc4ncc(Cl)cc4OCC(F)(F)F)cc3c2F)CS(=O)(=O)C1` [Example 37, 5-((5-Chloro-3-(2,2,2-trifluoroethoxy)pyridin-2-yl)oxy)-3-fluoro-N-(3-methyl-1,1-dioxidothietan-3-yl)pyrazolo[1,5-a]pyridine-2-carboxamide], for which the midpoint of inhibition, the IC50, lay at 0.0077 µM. This IC50 and that of the molecule before are within 1.5-fold of each other.

In the case of `O=C(NC1CCCC1)c1cc2cc(Oc3ncccc3OCC(F)(F)F)ccn2n1` [Example 7, N-Cyclopentyl-5-((3-(2,2,2-trifluoroethoxy)pyridin-2-yl)oxy)pyrazolo[1,5-a]pyridine-2-carboxamide], the IC50 was 1.07 µM.

`CC1(NC(=O)c2nn3ccc(Oc4ncc(F)cc4OCC(F)(F)F)cc3c2Cl)CCS(=O)(=O)CC1` [Example 34, 3-Chloro-5-((5-fluoro-3-(2,2,2-trifluoroethoxy)pyridin-2-yl)oxy)-N-(4-methyl-1,1-dioxidotetrahydro-2H-thiopyran-4-yl)pyrazolo[1,5-a]pyridine-2-carboxamide] displayed an IC50 of 0.0073 µM.

For the molecule `COc1cccc(COc2ccn3nc(C(=O)NC4(C)CCS(=O)(=O)CC4)cc3n2)n1` [Example 68, 5-((6-Methoxypyridin-2-yl)methoxy)-N-(4-methyl-1,1-dioxidotetrahydro-2H-thiopyran-4-yl)pyrazolo[1,5-a]pyrimidine-2-carboxamide], the IC50 is above 9.99 µM.

Take `CC1(NC(=O)c2cc3cc(Oc4ncc(F)cc4OCC(F)F)ccn3n2)CS(=O)(=O)C1` [Example 11, 5-((3-(2,2-Difluoroethoxy)-5-fluoropyridin-2-yl)oxy)-N-(3-methyl-1,1-dioxidothietan-3-yl)pyrazolo[1,5-a]pyridine-2-carboxamide]: the IC50 came out at 0.0025 µM.

`CC1(NC(=O)c2nn3ccc(Oc4nccnc4OCC(F)F)cc3c2F)CS(=O)(=O)C1` [Example 31, 5-((3-(2,2-Difluoroethoxy)pyrazin-2-yl)oxy)-3-fluoro-N-(3-methyl-1,1-dioxidothietan-3-yl)pyrazolo[1,5-a]pyridine-2-carboxamide] yielded an IC50 of 0.194 µM.

In the case of `Cc1c(C(=O)NC2(C)CS(=O)(=O)C2)nn2ccc(Oc3ncccc3OCC(F)(F)F)cc12` [Example 20, 3-Methyl-N-(3-methyl-1,1-dioxidothietan-3-yl)-5-((3-(2,2,2-trifluoroethoxy)pyridin-2-yl)oxy)pyrazolo[1,5-a]pyridine-2-carboxamide], the IC50 worked out at 0.171 µM.

As for `CCc1c(C(=O)NC2(C)CCS(=O)(=O)CC2)nn2ccc(Oc3ncccc3OCC(F)(F)F)cc12` [Example 46, 3-Ethyl-N-(4-methyl-1,1-dioxidotetrahydro-2H-thiopyran-4-yl)-5-((3-(2,2,2-trifluoroethoxy)pyridin-2-yl)oxy)pyrazolo[1,5-a]pyridine-2-carboxamide], the IC50 was determined as 0.017 µM.

As for `CC1(NC(=O)c2nn3ccc(Oc4ncccc4OCC(F)(F)F)cc3c2C(F)(F)F)CCS(=O)(=O)CC1` [Example 51, N-(4-Methyl-1,1-dioxidotetrahydro-2H-thiopyran-4-yl)-5-((3-(2,2,2-trifluoroethoxy)pyridin-2-yl)oxy)-3-(trifluoromethyl)pyrazolo[1,5-a]pyridine-2-carboxamide], the IC50 turned out to be 0.828 µM.

`CC(C)c1c(C(=O)NC2(C)CCS(=O)(=O)CC2)nn2ccc(Oc3ncccc3OCC(F)(F)F)cc12` [Example 48, 3-Isopropyl-N-(4-methyl-1,1-dioxidotetrahydro-2H-thiopyran-4-yl)-5-((3-(2,2,2-trifluoroethoxy)pyridin-2-yl)oxy)pyrazolo[1,5-a]pyridine-2-carboxamide] gave an IC50 of 0.046 µM.

`COc1ccc(Cl)c(COc2ccn3nc(C(=O)NC4(C)CCS(=O)(=O)CC4)cc3n2)n1` [Example 70, 5-((3-Chloro-6-methoxypyridin-2-yl)methoxy)-N-(4-methyl-1,1-dioxidotetrahydro-2H-thiopyran-4-yl)pyrazolo[1,5-a]pyrimidine-2-carboxamide] displayed an IC50 of 0.082 µM.

In the case of `CC1(NC(=O)c2nc3cc(Oc4ncc(Cl)cc4OCC(F)(F)F)ccn3n2)CS(=O)(=O)C1` [Example 66, 7-((5-Chloro-3-(2,2,2-trifluoroethoxy)pyridin-2-yl)oxy)-N-(3-methyl-1,1-dioxidothietan-3-yl)-[1,2,4]triazolo[1,5-a]pyridine-2-carboxamide], inhibition was half-maximal at 0.067 µM (IC50).

In turn, `CC1(NC(=O)c2cc3cc(Oc4ncc(C(O)C5CC5)cc4OCC(F)(F)F)ccn3n2)CCS(=O)(=O)CC1` (single isomer, unassigned) [Example 43b, 5-((5-(Cyclopropyl(hydroxy)methyl)-3-(2,2,2-trifluoroethoxy)pyridin-2-yl)oxy)-N-(4-methyl-1,1-dioxidotetrahydro-2H-thiopyran-4-yl)pyrazolo[1,5-a]pyridine-2-carboxamide] displayed an IC50 above 9.99 µM.

`CC1(NC(=O)c2nn3ccc(Oc4ncccc4OCC(F)(F)F)cc3c2Cl)CS(=O)(=O)C1` [Example 25, 3-Chloro-N-(3-methyl-1,1-dioxidothietan-3-yl)-5-((3-(2,2,2-trifluoroethoxy)pyridin-2-yl)oxy)pyrazolo[1,5-a]pyridine-2-carboxamide] showed an IC50 of 0.03 µM.

Regarding `CC(C)(CNS(C)(=O)=O)NC(=O)c1cc2cc(Oc3ncccc3OCC(F)(F)F)ccn2n1` [Example 3, N-(2-Methyl-1-(methylsulfonamido)propan-2-yl)-5-((3-(2,2,2-trifluoroethoxy)pyridin-2-yl)oxy)pyrazolo[1,5-a]pyridine-2-carboxamide], 0.694 µM corresponded to half-maximal inhibition (IC50).

`O=C(NC1(C(F)F)CCS(=O)(=O)CC1)c1nc2cc(Oc3ncc(Cl)cc3OCC(F)(F)F)ccn2n1` [Example 64, 7-((5-Chloro-3-(2,2,2-trifluoroethoxy)pyridin-2-yl)oxy)-N-(4-(difluoromethyl)-1,1-dioxidotetrahydro-2H-thiopyran-4-yl)-[1,2,4]triazolo[1,5-a]pyridine-2-carboxamide] returned an IC50 of 0.165 µM.

With `Cc1c(C(=O)NC2(C)CCS(=O)(=O)CC2)nn2ccc(Oc3ncccc3OCC(F)(F)F)cc12` [Example 19, 3-Methyl-N-(4-methyl-1,1-dioxidotetrahydro-2H-thiopyran-4-yl)-5-((3-(2,2,2-trifluoroethoxy)pyridin-2-yl)oxy)pyrazolo[1,5-a]pyridine-2-carboxamide], the IC50 turned out to be 0.0072 µM. This IC50 is about 23-fold lower than that of the molecule before.

Molecule `CC1(NC(=O)c2nn3ccc(Oc4nccnc4OCC(F)F)cc3c2Cl)CS(=O)(=O)C1` [Example 30, 3-Chloro-5-((3-(2,2-difluoroethoxy)pyrazin-2-yl)oxy)-N-(3-methyl-1,1-dioxidothietan-3-yl)pyrazolo[1,5-a]pyridine-2-carboxamide] showed a concentration for half-maximal inhibition (IC50) of 0.078 µM.
